Results from patent publication US11352338B2, “Substituted isoindolinones” (BioTheryX, Inc., priority 2018, dated 2022).
Read-outs that look alike come from different tables or passages of the source.

Experiments:
PDE6D = target: T1, PDE6D (Homo sapiens, UniProt O43924+Q96SW2); assay: Western blot, degradation of cellular PDE6D in MV-4-11 cells; assay type: cell-based; settings: for Dmax at 1 µM: MV4-11, tested at 1 μM, MV-4-11 cells, 6-8 hours, read-out: % Degradation compared to DMSO, PDE6D; for % Degradation of PDE6D: comparison with comparative compound A
T1 construct: endogenous in cells; host or cells: MV-4-11
T1 sequence (O43924 whole entry): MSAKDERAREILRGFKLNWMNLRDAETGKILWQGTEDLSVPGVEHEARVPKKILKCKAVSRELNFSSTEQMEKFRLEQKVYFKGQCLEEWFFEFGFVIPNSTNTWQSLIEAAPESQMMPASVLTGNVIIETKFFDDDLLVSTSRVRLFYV
T1 sequence (Q96SW2 whole entry): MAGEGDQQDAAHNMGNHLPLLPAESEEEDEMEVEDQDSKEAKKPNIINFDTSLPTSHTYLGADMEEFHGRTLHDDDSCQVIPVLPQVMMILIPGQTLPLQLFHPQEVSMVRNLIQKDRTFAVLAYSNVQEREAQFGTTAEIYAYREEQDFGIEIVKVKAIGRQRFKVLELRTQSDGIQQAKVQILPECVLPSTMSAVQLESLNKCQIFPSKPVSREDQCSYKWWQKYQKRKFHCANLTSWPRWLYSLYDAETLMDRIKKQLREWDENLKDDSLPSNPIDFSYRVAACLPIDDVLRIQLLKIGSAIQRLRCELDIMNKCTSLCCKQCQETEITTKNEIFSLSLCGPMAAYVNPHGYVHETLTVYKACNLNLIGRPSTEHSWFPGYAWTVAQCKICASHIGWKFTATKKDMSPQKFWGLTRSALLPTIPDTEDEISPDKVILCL
T1 sequence (Q16531 whole entry partner): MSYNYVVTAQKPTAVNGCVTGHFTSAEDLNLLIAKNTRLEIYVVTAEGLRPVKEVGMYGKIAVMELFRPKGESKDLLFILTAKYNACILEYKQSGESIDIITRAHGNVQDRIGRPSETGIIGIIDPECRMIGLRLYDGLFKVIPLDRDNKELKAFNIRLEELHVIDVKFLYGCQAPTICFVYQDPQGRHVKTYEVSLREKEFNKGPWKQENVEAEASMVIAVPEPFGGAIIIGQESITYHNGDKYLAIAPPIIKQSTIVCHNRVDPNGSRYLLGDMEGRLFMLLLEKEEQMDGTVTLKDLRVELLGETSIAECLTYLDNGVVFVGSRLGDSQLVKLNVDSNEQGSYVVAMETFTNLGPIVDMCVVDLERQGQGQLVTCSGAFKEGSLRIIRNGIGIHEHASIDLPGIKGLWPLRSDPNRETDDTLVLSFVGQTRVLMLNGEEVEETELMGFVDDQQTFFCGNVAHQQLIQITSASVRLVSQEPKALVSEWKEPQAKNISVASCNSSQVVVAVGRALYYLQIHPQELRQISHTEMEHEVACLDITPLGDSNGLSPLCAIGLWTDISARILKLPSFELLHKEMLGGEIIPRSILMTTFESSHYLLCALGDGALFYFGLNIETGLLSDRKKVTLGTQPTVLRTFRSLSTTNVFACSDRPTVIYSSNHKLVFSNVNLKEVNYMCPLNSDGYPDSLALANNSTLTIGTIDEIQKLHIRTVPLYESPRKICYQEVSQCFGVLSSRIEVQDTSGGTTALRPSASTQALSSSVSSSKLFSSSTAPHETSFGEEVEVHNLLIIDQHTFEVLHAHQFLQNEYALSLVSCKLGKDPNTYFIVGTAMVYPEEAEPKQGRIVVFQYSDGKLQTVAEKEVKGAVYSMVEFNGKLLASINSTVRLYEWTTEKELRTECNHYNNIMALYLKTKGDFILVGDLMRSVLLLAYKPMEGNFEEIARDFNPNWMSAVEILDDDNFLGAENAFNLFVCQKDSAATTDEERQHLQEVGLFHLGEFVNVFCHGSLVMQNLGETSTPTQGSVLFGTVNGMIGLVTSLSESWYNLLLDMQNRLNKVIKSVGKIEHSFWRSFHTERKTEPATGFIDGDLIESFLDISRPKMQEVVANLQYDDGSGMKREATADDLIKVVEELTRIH
Experimental: (§1) MV-4-11 cells were grown in RPMI 1640 media supplemented with 10% fetal bovine serum, streptomycin and penicillin.
(§2) Cells were cultured at approximately 10^6 cells per mL and incubated in DMSO or the indicated compounds for 6-8 hours. Whole cell extracts were prepared using RIPA lysis buffer according to manufacturer's protocol (Pierce). Briefly, 4×10^6 cells were washed once in PBS, the cell pellets were resuspended in RIPA lysis buffer and allowed to incubate for 15 minutes on ice. Cells debris was removed by centrifugation and the cleared whole cell lysates were transferred to new tubes for further analysis.
(§3) For Western blot analysis, whole cell protein extracts were separated on 4-12% SDS-polyacrylamide gels, transferred to nitrocellulose and probed with the indicated primary antibodies. Membranes were subsequently washed and probed with the appropriate IRDye secondary antibodies (LI-COR). The signal was detected using the Odyssey Imaging System (LI-COR).
(§4) The following antibodies were used in these studies: Anti-PDE6D antibody: Santa Cruz Biotechnology, sc-166854 (Dallas, Tex.); Anti-Ikaros: Abcam, ab191394 (Cambridge, Mass.); anti-CK1α antibody: Abcam, ab108296 (Cambridge, Mass.); β-Actin (8H10D10) mouse monoclonal antibody: Cell Signaling Technology, #3700 (Danvers, Mass.); IRDye 680RD Goat anti-rabbit antibody: LI-COR, 926-68071 (Lincoln, Nebr.); and IRDye 800CW Goat anti-mouse antibody: LI-COR, 926-32210 (Lincoln, Nebr.).
(§5) The % degradation values are reported as “A”, “B”, “C”, or “D.” “A” represents a % degradation value of less than 25% (value<25%); “B” represents a % degradation value of equal to or more than 25% and less than 50% (25%≤value<50%); “C” represents a % degradation value of equal to or more than 50% and less than 75% (50%≤value<75%); and “D” represents a % degradation value of equal to or more than 75% (value≥75%). […] was used as control.

CK1α = target: T2, CK1α (Homo sapiens, UniProt P48729+Q96SW2); assay: Western blot, degradation of cellular CK1α in MV-4-11 cells; assay type: cell-based; settings: MV4-11, tested at 1 μM, 6-8 hours, read-out: % Degradation compared to DMSO, CK1α
T2 construct: endogenous in cells; host or cells: MV-4-11
T2 sequence (P48729 whole entry): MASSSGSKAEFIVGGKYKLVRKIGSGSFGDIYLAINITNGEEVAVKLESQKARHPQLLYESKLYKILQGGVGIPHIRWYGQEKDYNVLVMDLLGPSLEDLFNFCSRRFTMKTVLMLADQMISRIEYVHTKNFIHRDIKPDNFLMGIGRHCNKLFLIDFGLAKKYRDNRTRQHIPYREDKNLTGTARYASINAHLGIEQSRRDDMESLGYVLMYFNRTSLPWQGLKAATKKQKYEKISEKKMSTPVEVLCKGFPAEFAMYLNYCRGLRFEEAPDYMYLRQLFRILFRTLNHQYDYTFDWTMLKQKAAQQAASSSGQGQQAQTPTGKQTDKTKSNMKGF
T2 sequence (Q96SW2 whole entry): as the sequence (Q96SW2 whole entry) above
T2 sequence (Q16531 whole entry partner): as the sequence (Q16531 whole entry partner) above
Experimental: as §1, §2, §3, §4, §5

Ikaros = target: T3, Ikaros (Homo sapiens, UniProt Q13422+Q96SW2); assay: Western blot, degradation of cellular Ikaros in MV-4-11 cells; assay type: cell-based; settings: MV4-11, tested at 1 μM, 6-8 hours, read-out: % Degradation compared to DMSO, Ikaros
T3 construct: endogenous in cells; host or cells: MV-4-11
T3 sequence (Q13422 whole entry): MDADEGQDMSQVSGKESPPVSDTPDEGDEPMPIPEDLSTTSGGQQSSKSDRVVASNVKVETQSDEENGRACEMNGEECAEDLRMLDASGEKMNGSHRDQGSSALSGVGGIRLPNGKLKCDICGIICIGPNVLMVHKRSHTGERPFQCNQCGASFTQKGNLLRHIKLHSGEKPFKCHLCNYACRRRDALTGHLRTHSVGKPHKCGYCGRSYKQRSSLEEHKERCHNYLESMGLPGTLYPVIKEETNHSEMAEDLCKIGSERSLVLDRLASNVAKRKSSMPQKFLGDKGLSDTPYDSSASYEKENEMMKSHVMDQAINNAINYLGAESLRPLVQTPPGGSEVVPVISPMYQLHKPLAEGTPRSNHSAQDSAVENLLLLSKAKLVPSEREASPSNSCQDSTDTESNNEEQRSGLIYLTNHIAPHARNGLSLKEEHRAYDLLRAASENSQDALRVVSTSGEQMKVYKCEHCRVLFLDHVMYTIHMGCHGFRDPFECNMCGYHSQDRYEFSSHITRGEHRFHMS
T3 sequence (Q96SW2 whole entry): as the sequence (Q96SW2 whole entry) above
T3 sequence (Q16531 whole entry partner): as the sequence (Q16531 whole entry partner) above
Experimental: as §1, §2, §3, §4, §5

IL-1β = IL-1β inhibition, LPS-induced PBMCs or CD14+ monocytes, Meso Scale assay; assay type: cell-based; settings: LPS 100 ng/mL 18-24 h, read-out: % Inhibition compared to DMSO, IL-1β; for inhibition at 1 µM: tested at 1 μM; for inhibition at 10 µM: tested at 10 μM
Experimental: (§6) Either frozen primary blood mononuclear cells (PBMCs) or frozen CD14+ mobilized peripheral blood monocytes were purchased from AllCells (PB003F, Normal Peripheral Blood MNC (Alameda, Calif.)). Cells were quick thawed, washed 1-time with RPMI-1640 (10% FBS/1% Pen-Strep) and plated in 96 well plates at 200,000 cells per well. Cells were pretreated with DMSO only or with the indicated compound for 1 h and then induced with 100 ng/mL lipopolysaccharide (LPS) for 18-24 h. The supernatant was analyzed for IL-1β, IL-6, and TNFα, using Meso Scale assay according to manufacturer's protocol. The negative control wells were treated with DMSO.
(§7) IL-1β, IL-6 and TNFα activities were tested at two different concentrations (1 μM and 10 μM) and the results are shown in Tables 2 and 3 respectively.

IL-6 = IL-6 inhibition, LPS-induced PBMCs or CD14+ monocytes, Meso Scale assay; assay type: cell-based; settings: LPS 100 ng/mL 18-24 h, read-out: % Inhibition compared to DMSO, IL-6; for inhibition at 1 µM: tested at 1 μM; for inhibition at 10 µM: tested at 10 μM
Experimental: as §6, §7

TNFα = TNFα inhibition, LPS-induced PBMCs or CD14+ monocytes, Meso Scale assay; assay type: cell-based; settings: LPS 100 ng/mL 18-24 h, read-out: % Inhibition compared to DMSO, TNFα; for inhibition at 1 µM: tested at 1 μM; for inhibition at 10 µM: tested at 10 μM
Experimental: as §6, §7

IL-2 = IL-2 inhibition assay, anti-CD3 (OKT3) stimulated PBMCs, Mesoscale IL-2 analysis; assay type: cell-based, human; settings: for fold induction at 1 µM / fold induction at 10 µM: Homo sapiens, PBMC, read-out: IL-2, % Induction compared to DMSO
Experimental: For the IL-2 analysis, 96 well plates were precoated with 1 μg/mL anti-human CD3 antibody (OKT3, eBioscience Inc., San Diego, Calif.). After washing with PBS, the indicated compound was added (50 μL/well) followed by PBMCs diluted at 3-4 million cells/mL (150 μL/well). Plates were incubated for 24 h and the supernatants collected for Mesoscale IL-2 analysis. IL-2 activity is measured as fold difference from the DMSO control. […]
In Table 4, the fold-change values are reported as “A”, “B”, “C”, or “D”. “A” represents a fold-change value of equal to or less than 0.5 (value≤0.5); “B” represents a fold-change value of more than 0.5 and equal to or less than 1 (0.5<value≤1); “C” represents a fold-change value of more than 1 and less than 1.5 (1<value<1.5); and “D” represents a fold-change value of equal to or more than 1.5 (value≥1.5).

[1] = PBMCs on anti-CD3, 24 h, fold difference from DMSO control
[2] = 10 μM, PBMCs on anti-CD3, 24 h, fold difference from DMSO control

Compound | Dmax at 1 µM (PDE6D) [%] | Dmax at 1 µM (CK1α) [%] | Dmax at 1 µM (Ikaros) [%] | inhibition at 1 µM (IL-1β) [%] | inhibition at 10 µM (IL-1β) [%] | inhibition at 1 µM (IL-6) [%] | inhibition at 10 µM (IL-6) [%] | inhibition at 1 µM (TNFα) [%] | inhibition at 10 µM (TNFα) [%] | fold induction at 1 µM (IL-2; [1]) | fold induction at 10 µM (IL-2; [2]) | % Degradation of PDE6D (PDE6D; 1 μM) | effect on IL-2 (in words) (IL-2; 10 μM) | IL-2, % Induction compared to DMSO (IL-2; 10 μM, comparison with comparative compound B) | fold induction at 10 µM (IL-2; 24 h, 10 μM, comparison with comparative compound B) | PDE6D degradation activity (in words) (PDE6D; 1 μM)
O=C1CCC(N2C(=O)c3cccc(C4CCCC4)c3C2=O)C(=O)N1 (stereo not shown) [Compound 10, 4-cyclopentyl-2-(2,6-dioxopiperidin-3-yl)isoindoline-1,3-dione] | 50 to 75 | < 25 | 25 to 50 | < 10 | 10 to 25 | < 10 | 10 to 25 | 10 to 25 | > 50 | 1 to 1.5 | 0.5 to 1 |  |  |  |  | 
O=C1CCC(N2Cc3c(cc(Cl)cc3C3CCCC3)C2=O)C(=O)N1 (stereo not shown) [Compound 28] | < 25 | < 25 | < 25 | < 10 | < 10 | < 10 | 10 to 25 | 10 to 25 | 10 to 25 | 1 to 1.5 | 0.5 to 1 |  |  |  |  | 
C[C@@H](c1cc(F)cc2c1CN(C1CCC(=O)NC1=O)C2=O)C(F)(F)F (stereo partly shown) [Compound 22] | ≥ 75 | ≥ 75 | < 25 | < 10 | 10 to 25 | < 10 | 10 to 25 | < 10 | 25 to 50 | ≤ 0.5 | ≤ 0.5 | D (a % degradation value of equal to or more than 75% (value≥75%)) | strong inhibition of IL-2 (downregulation) | A (a fold-change value of equal to or less than 0.5 (value≤0.5)) |  | 
CC1(C)CC=C(c2cc(F)cc3c2CN(C2CCC(=O)NC2=O)C3=O)CC1 (stereo not shown) [Compound 8] | < 25 | < 25 | < 25 | < 10 | < 10 | 10 to 25 | 10 to 25 | 10 to 25 | 25 to 50 | 0.5 to 1 | 0.5 to 1 |  |  |  |  | 
COc1cc2c(c(C3CCCC3)c1)CN(C1CCC(=O)NC1=O)C2=O (stereo not shown) [Compound 14] | 25 to 50 | 25 to 50 | 50 to 75 | < 10 | 10 to 25 | < 10 | < 10 | 10 to 25 | 25 to 50 | 0.5 to 1 | 0.5 to 1 |  |  |  |  | 
Cc1cccc2c1CN(C1CCC(=O)NC1=O)C2=O (stereo not shown) [Compound B, reference compound] |  |  |  |  |  |  |  |  |  |  |  |  | induced IL-2 (upregulation) |  | ≥ 1.5 | 
O=C1CCC(N2Cc3c(ccc(F)c3C3CCCC3)C2=O)C(=O)N1 (stereo not shown) [Compound 24] | 25 to 50 | < 25 | < 25 | < 10 | < 10 | < 10 | < 10 | 10 to 25 | < 10 | 1 to 1.5 | 1 to 1.5 |  |  |  |  | 
CCC1(N2Cc3c(cc(F)cc3C3CCCC3)C2=O)CCC(=O)NC1=O (stereo not shown) [Compound 18, 3-(4-Cyclopentyl-6-fluoro-1-oxoisoindolin-2-yl)-3-ethylpiperidine-2,6-dione] | 25 to 50 | < 25 | < 25 | < 10 | 10 to 25 | < 10 | < 10 | < 10 | 25 to 50 | 1 to 1.5 | 0.5 to 1 |  |  |  |  | 
C[C@@H](c1cccc2c1CN(C1CCC(=O)NC1=O)C2=O)C(F)(F)F (stereo partly shown) [Compound 30] | < 25 | < 25 | 25 to 50 | < 10 | < 10 | < 10 | < 10 | < 10 | 10 to 25 | 1 to 1.5 | 0.5 to 1 |  |  |  |  | 
O=C1CC(N2Cc3c(cc(F)cc3C3CCCC3)C2=O)C(=O)N1 (stereo not shown) [Compound 19, 3-(4-Cyclopentyl-6-fluoro-1-oxoisoindolin-2-yl)pyrrolidine-2,5-dione] | ≥ 75 | < 25 | < 25 | < 10 | < 10 | < 10 | < 10 | < 10 | < 10 | 0.5 to 1 | 0.5 to 1 |  |  |  |  | 
CC1CC(=O)NC(=O)C1N1Cc2c(cc(F)cc2C2CCCC2)C1=O (stereo not shown) [Compound 6, 3-(4-cyclopentyl-6-fluoro-1-oxoisoindolin-2-yl)-4-methylpiperidine-2,6-dione] | ≥ 75 | 25 to 50 | < 25 | < 10 | 10 to 25 | < 10 | < 10 | 10 to 25 | > 50 | 0.5 to 1 | ≤ 0.5 |  |  |  |  | 
O=C1CCC(N2Cc3c(cc(F)cc3C3CCOCC3)C2=O)C(=O)N1 (stereo not shown) [Compound 32] | ≥ 75 | 25 to 50 | < 25 | < 10 |  | < 10 |  | < 10 |  |  |  |  |  |  |  | 
O=C1CCC(N2Cc3c(cc(F)cc3C(F)F)C2=O)C(=O)N1 (stereo not shown) [Compound 17, 3-(4-(Difluoromethyl)-6-fluoro-1-oxoisoindolin-2-yl) piperidine-2,6-dione] | 50 to 75 |  | ≥ 75 | < 10 | 10 to 25 | < 10 | < 10 | 25 to 50 | 25 to 50 | 0.5 to 1 | 0.5 to 1 |  |  |  |  | 
Cc1cccc2c1CN(C1CCCC(=O)NC1=O)C2=O (stereo not shown) [Compound A, reference compound] |  |  |  |  |  |  |  |  |  |  |  | A (a % degradation value of less than 25% (value<25%)) |  |  |  | did not demonstrate any measurable PDE6D degradation activity
